Source: article PMC6530635, “A Novel Single-Site Mutation in the Catalytic Domain of Protoporphyrinogen Oxidase IX (PPO) Confers Resistance to PPO-Inhibiting Herbicides” (Frontiers in Plant Science, 2019)
Where two headings read alike, the source gives them in different places.

Assays:
[1] = biological target: recombinant Amaranthus tuberculatus PPO2 wild-type enzyme (Amaranthus tuberculatus, UniProt Q0NZW9); assay: biochemical
[2] = test system: Amaranthus palmeri R39P population; assay type: in vivo; conditions: for Frequency of resistant plants: R39P F1 population, 2X recommended dose, 21 DAT, 25 seedlings
[3] = test system: Amaranthus palmeri MIS-D population; design: method as in Salas-Perez et al., 2017; conditions: ref Salas-Perez et al., 2017, cited from earlier work; for Response of MIS-D to 1X dose / Frequency of resistant plants: MIS-D field population
[4] = test system: Amaranthus palmeri (Palmer amaranth) populations MIS-D, R39P, R43P and SS; assay type: in vivo; conditions: visual injury 21 DAT, foliar spray

recombinant Amaranthus tuberculatus PPO2 wild-type enzyme, sequence (Q0NZW9 1-534): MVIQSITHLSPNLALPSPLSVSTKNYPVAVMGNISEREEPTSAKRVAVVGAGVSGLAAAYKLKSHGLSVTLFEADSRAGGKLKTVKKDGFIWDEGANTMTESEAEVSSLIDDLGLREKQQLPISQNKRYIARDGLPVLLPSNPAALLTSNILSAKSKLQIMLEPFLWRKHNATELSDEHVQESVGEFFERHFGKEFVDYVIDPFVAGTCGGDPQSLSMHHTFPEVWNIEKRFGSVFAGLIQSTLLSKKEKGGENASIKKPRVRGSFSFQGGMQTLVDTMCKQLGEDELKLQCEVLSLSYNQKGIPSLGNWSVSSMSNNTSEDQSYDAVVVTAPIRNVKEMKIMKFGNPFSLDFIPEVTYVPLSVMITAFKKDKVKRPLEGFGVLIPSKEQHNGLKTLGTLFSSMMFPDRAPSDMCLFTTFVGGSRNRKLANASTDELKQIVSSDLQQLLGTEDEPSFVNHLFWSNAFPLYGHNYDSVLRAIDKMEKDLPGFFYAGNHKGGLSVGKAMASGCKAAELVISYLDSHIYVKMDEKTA

Row | Compound | IC50 [1] | Frequency of resistant plants [2] | Response of MIS-D to 1X dose [3] | Frequency of resistant plants ([3]; 1X dose) | also measured
1 | C#CCN1C(=O)COc2cc(F)c(N3C(=O)C4=C(CCCC4)C3=O)cc21 [Flumioxazin] | 0.039 nM | 60% | resistant | 40% | Frequency of resistant plants ([2]; listed as flumioxazin): ≥ 40%
2 | CCOC(=O)C(C)OC(=O)c1cc(Oc2ccc(C(F)(F)F)cc2Cl)ccc1[N+](=O)[O-] (stereo not shown) [Lactofen] | 0.056 nM | 40% | resistant | 23% | Frequency of resistant plants ([2]; listed as lactofen): ≥ 40%
3 | C=CCOC(=O)C(C)(C)OC(=O)c1cc(-n2c(=O)cc(C(F)(F)F)n(C)c2=O)ccc1Cl [Butafenacil] | 0.00896 nM | – | – | – | –
4 | O=C(O)c1cc(Oc2ccc(C(F)(F)F)cc2Cl)ccc1[N+](=O)[O-] [Acifluorfen] | 18.5 nM | 8% | – | 1% | Survival rate ([2]; in vivo): < 20%; Mortality ([3]; MIS-D, 1X dose): > 90%
5 | CC(C)N(C)S(=O)(=O)NC(=O)c1cc(-n2c(=O)cc(C(F)(F)F)n(C)c2=O)c(F)cc1Cl [Saflufenacil] | – | – | – | – | Survival rate ([2]; in vivo): < 20%
6 | CCOc1cc(Oc2ccc(C(F)(F)F)cc2Cl)ccc1[N+](=O)[O-] [Oxyfluorfen] | 0.0342 nM | – | – | – | –
7 | CC(C)Oc1cc(-n2nc(C(C)(C)C)oc2=O)c(Cl)cc1Cl [Oxadiazon] | 0.7 nM | – | – | – | –
8 | CCOC(=O)COc1cc(-c2nn(C)c(OC(F)F)c2Cl)c(F)cc1Cl [Pyraflufen-ethyl] | 0.0519 nM | – | resistant | – | –
9 | COC(=O)CSc1cc(/N=c2\sc(=O)n3n2CCCC3)c(F)cc1Cl [Fluthiacet-methyl] | 0.669 nM | – | resistant | – | –
10 | Cc1nn(-c2cc(CC(Cl)C(=O)O)c(Cl)cc2F)c(=O)n1C(F)F (stereo not shown) [Carfentrazone] | 0.196 nM | 64% | resistant | – | Frequency of resistant plants ([2]; listed as carfentrazone): ≥ 40%
11 | Cc1nn(-c2cc(NS(C)(=O)=O)c(Cl)cc2Cl)c(=O)n1C(F)F [Sulfentrazone] | 17.5 nM | – | – | – | –
12 | C#CCN(C)c1c(C#N)cnn1-c1nn2c(c1Cl)CCCC2 [Pyraclonil] | – | – | – | – | IC50 ([1]; read-out: Wild type sensitivity [IC50]): 1.39 nM
13 | CS(=O)(=O)NC(=O)c1cc(Oc2ccc(C(F)(F)F)cc2Cl)ccc1[N+](=O)[O-] [Fomesafen] | 1.32 nM | – | resistant | 42% | ED50 (dose causing 50% herbicide injury) ([4]; MIS-D field population, PPO-resistant): 124 (101–147) g ai ha^-1; ED50 (dose causing 50% herbicide injury) ([4]; R39P F1 population, PPO-resistant): 143 (122–165) g ai ha^-1; ED50 (dose causing 50% herbicide injury) ([4]; R43P F1 population, PPO-resistant): 187 (174–202) g ai ha^-1; ED50 (dose causing 50% herbicide injury) ([4]; SS population, PPO-sensitive): 12 (10–13) g ai ha^-1; Survival rate ([2]; R39P, 2X dose): < 20%
